Patent US20250177576A1, “COMPOUNDS FOR THE MEASUREMENT OF THE OXYGEN CONCENTRATION” (Center for Neuromusculoskeletal Restorative Medicine Limited, priority 2022, published 2025)

Experiments:
Type in all cases: physicochemical
[1] = Oxygen quenching calibration (Stern-Volmer) in tetrahydrofuran; details: 10 μM in tetrahydrofuran
Procedure: The photoluminescence spectra of the Pt(ttiq)(acac) (10 μM) in tetrahydrofuran in different oxygen concentrations upon 500 nm photoexcitation is presented in FIG. 2A. The phosphorescence peak intensity (698 nm) increases while the oxygen level of the solution decreases, whereas the fluorescence (528 nm) remains independent of the oxygen level. The oxygen quenching of the phosphorescence may be interpreted using Stern-Volmer relationship, in which (I0/I=1+KSV·[O2]) where I: phosphorescence intensity; I0: phosphorescence intensity at 0% of oxygen; KSV: quencher coefficient; [O2]: oxygen concentration. The data of FIG. 2A are fitted with this relationship in FIG. 2B and thus the I0 could be estimated from the equation of (y=133.75801/(1+0.0371−x); adjusted R^2=0.98066). Therefore, a linear correlation of I0/I against [O2](y=1.10962+0.03545 x; adjusted R^2=0.99036) could be established as in FIG. 2C. Mathematically, the Stern-Volmer relationship could be further derived to (R0/R=1+KSV·[O2]) whereas the fluorescence peak intensity is a constant, and thus the R0 could be estimated from the equation of (y=2.04177/(1+0.03267−x); adjusted R^2=0.97785) in FIG. 2D. Similarly, a linear correlation of R0/R against [O2](y=1.07595+0.03165−x; adjusted R^2=0.98135) could be established as in FIG. 2E. In short, the linear correlation between the ratiometric photoluminescence signal and oxygen concentration (%) obtained from FIG. 2E may be utilized to analyze the oxygen content of a tetrahydrofuran sample without the concerns of concentration dependency and absolute intensity value.
The oxygen concentration (%) or partial pressure of solution samples were varied by O2/N2 gas-purging with a syringe needle and natural ventilation (or gradually adding sodium sulfite (Na2SO3) solution as an oxygen consuming chemical reagent). The instantaneous oxygen concentration (%) of aqueous samples (or oxygen partial pressure values of tetrahydrofuran solutions) at 293 K were measured using pre-calibrated FireSting®-GO2 oxygen meter (PyroScience) coupled with a TDIP15 temperature probe (PyroScience) and a fiber optic sensor (OXR430-OI, or OXSOLV for organic solvent measurement) (PyroScience). The photoluminescence signals of the nano-sensor solution at different oxygen concentrations (%) (or partial pressures) were then measured by the fluorescence spectrophotometer and confocal laser scanning microscope. The calibration curves were established using the signal intensity at 528 nm and 698 nm from the PL spectra, and integrated signals' intensity from customized green channel (507-609 nm) and red channel (657-740 nm) from the CLSM images.

[2] = Photoluminescence spectra in dichloromethane, oxygen-free vs ambient; details: 10 μM in dichloromethane, excitation 500 nm
Procedure: (§1) Proton and carbon NMR spectra were measured in CDCl3 on a Bruker AVANCE III 400 MHz NMR Spectrometer and tetramethylsilane (TMS) was exploited as an internal standard for calibrating the chemical shift. Electrospray Ionization Quadrupole-Time-of-Flight (ESI-Q-TOF) mass spectrometry was performed on an Agilent 6540 Liquid chromatography—ESI-Q-TOF Mass Spectrometer. UV/Vis absorption spectroscopy was performed on a Molecular Devices SpectraMax M2e in different solutions at 293 K. Fluorescence emission spectra were taken from a LS-55 fluorescence spectrophotometer (PerkinElmer) at 293 K.

[3] = PL spectra in water/tetrahydrofuran binary mixtures (aggregation, AIE/ACQ)
Procedure: as §1
In view of the co-planar chemical structure of Pt(ttiq)(acac), it was interesting to look for any aggregation induced emission (AIE) or aggregation caused quenching (ACQ) property. […] When the water fraction further increased to or above 80%, the mixture formed clearly observable precipitates in the cuvette.
In order to observe whether these nanoaggregates were still readily quenched by oxygen, the PL spectra of the nanoaggregates' solution with a fwater of 60% was compared before and after the deaeration.

Structure (SMILES): CC(=O)C=C(C)[O][Pt][c]1c(-c2nccc3ccccc23)sc2ccsc12 [Pt(ttiq)(acac)]
- quencher coefficient KSV from fit of PL intensity ratio (FIG. 2D) [1]: 0.03267
- slope of linear correlation I0/I against [O2] (FIG. 2C) [1]: 0.03545
- slope of linear correlation R0/R against [O2] (FIG. 2E calibration curve) [1]: 0.03165
- fluorescence peak wavelength ([1]; excitation 500 nm): 528 nm
- phosphorescence peak wavelength ([1]; excitation 500 nm): 698 nm
- quencher coefficient KSV from fit of phosphorescence intensity (FIG. 2B) ([1]; vs oxygen partial pressure): 0.0371
- constant PL peak (fluorescence) wavelength ([2]; disregarding oxygen content): 528 nm
- maximum phosphorescence intensity wavelength ([2]; oxygen-sensitive peak): 698 nm
- oxygen response of nanoaggregates ([3]; fwater 60%, before and after deaeration): still very responsive to the oxygen content
- aggregation induced emission property ([3]; water fraction 0 to 70% in tetrahydrofuran, 10 μM, ambient, excitation 500 nm): AIE-active species in the region of 650-750 nm
- water fraction at which clearly observable precipitates form ([3]; water/tetrahydrofuran mixture, 10 μM): ≥ 80%
